Assay results published in PMC9571063 (Molecules, 2022).
pIC50: −log10 of the molar value. Like-named read-outs stand apart in the source and are kept apart here.

Tests used:
[1] = biological target: T1, ABL1(H396P)-phosphorylated (Homo sapiens, UniProt P00519, H396P); test: KINOMEscan; type: binding; details: read-out: Percent Control
T1 construct: purchased Eurofins DiscoverX KINOMEscan (scanMAX 468)

ADCK4 = biological target: T2, ADCK4 (Homo sapiens, UniProt Q96D53); test: KINOMEscan; type: binding; details: read-out: Percent Control
T2 construct: purchased Eurofins DiscoverX KINOMEscan (scanMAX 468)
T2 sequence (Q96D53 whole entry): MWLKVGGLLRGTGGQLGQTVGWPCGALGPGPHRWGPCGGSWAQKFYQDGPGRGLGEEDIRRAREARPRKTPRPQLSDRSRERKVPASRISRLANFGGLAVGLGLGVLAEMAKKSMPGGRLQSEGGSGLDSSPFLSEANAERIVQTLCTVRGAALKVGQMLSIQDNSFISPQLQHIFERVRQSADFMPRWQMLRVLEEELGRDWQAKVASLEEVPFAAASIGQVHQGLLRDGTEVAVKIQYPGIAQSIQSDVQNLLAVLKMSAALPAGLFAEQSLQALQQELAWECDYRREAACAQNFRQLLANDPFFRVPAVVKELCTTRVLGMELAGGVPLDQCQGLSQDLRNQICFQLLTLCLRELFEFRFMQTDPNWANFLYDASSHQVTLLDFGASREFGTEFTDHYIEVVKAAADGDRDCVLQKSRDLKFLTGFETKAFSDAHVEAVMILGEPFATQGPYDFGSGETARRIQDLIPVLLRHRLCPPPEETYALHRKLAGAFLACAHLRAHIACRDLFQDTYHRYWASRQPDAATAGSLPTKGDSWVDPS

AURKB = biological target: T3, AURKB (Homo sapiens, UniProt Q96GD4); test: KINOMEscan; type: binding; details: read-out: Percent Control
T3 construct: purchased Eurofins DiscoverX KINOMEscan (scanMAX 468)

BMPR1B = biological target: T4, BMPR1B (Homo sapiens, UniProt O00238); test: KINOMEscan; type: binding; details: read-out: Percent Control
T4 construct: purchased Eurofins DiscoverX KINOMEscan (scanMAX 468)

CAMK2D = biological target: T5, CAMK2D (Homo sapiens, UniProt Q13557); test: KINOMEscan; type: binding; details: read-out: Percent Control
T5 construct: purchased Eurofins DiscoverX KINOMEscan (scanMAX 468)

CDC2L5 = biological target: T6, CDC2L5 (Homo sapiens, UniProt Q14004); test: KINOMEscan; type: binding; details: read-out: Percent Control
T6 construct: purchased Eurofins DiscoverX KINOMEscan (scanMAX 468)

CDKL1 = biological target: T7, CDKL1 (Homo sapiens, UniProt Q00532); test: KINOMEscan; type: binding; details: read-out: Percent Control
T7 construct: purchased Eurofins DiscoverX KINOMEscan (scanMAX 468)

CHEK1 = biological target: T8, CHEK1 (Homo sapiens, UniProt O14757); test: KINOMEscan; type: binding; details: read-out: Percent Control
T8 construct: purchased Eurofins DiscoverX KINOMEscan (scanMAX 468)

DCAMKL1 = biological target: T9, DCAMKL1 (Homo sapiens, UniProt O15075); test: KINOMEscan; type: binding; details: read-out: Percent Control
T9 construct: purchased Eurofins DiscoverX KINOMEscan (scanMAX 468)

DDR2 = biological target: T10, DDR2 (Homo sapiens, UniProt Q16832); test: KINOMEscan; type: binding; details: read-out: Percent Control
T10 construct: purchased Eurofins DiscoverX KINOMEscan (scanMAX 468)
T10 sequence (Q16832 22-855): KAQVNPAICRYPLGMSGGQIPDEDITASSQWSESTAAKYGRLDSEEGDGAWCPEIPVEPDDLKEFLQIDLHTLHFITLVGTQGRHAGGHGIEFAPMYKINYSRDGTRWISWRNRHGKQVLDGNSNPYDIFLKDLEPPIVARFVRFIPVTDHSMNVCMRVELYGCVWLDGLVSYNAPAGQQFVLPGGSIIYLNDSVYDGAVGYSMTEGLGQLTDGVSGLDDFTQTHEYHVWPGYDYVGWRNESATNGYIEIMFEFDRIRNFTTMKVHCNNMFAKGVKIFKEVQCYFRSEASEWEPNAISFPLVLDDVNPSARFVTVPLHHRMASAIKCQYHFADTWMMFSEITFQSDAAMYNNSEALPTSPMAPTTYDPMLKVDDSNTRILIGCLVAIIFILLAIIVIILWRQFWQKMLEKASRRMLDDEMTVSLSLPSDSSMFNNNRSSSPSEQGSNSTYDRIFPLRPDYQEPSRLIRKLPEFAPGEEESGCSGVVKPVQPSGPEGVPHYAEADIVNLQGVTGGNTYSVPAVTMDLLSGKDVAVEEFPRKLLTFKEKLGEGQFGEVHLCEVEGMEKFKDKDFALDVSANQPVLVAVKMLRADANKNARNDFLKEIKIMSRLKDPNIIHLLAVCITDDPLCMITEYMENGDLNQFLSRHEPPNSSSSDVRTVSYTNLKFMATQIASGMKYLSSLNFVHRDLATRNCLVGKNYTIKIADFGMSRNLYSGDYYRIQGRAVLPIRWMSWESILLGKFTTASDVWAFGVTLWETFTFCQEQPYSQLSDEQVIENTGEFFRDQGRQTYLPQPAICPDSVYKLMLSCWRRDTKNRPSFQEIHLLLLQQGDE

EGFR(T790M) = biological target: T11, EGFR(T790M) (Homo sapiens, UniProt P00533, T790M); test: KINOMEscan; type: binding; details: read-out: Percent Control
T11 construct: purchased Eurofins DiscoverX KINOMEscan (scanMAX 468)

EPHA8 = biological target: T12, EPHA8 (Homo sapiens, UniProt P29322); test: KINOMEscan; type: binding; details: read-out: Percent Control
T12 construct: purchased Eurofins DiscoverX KINOMEscan (scanMAX 468)

EPHB6 = biological target: T13, EPHB6 (Homo sapiens, UniProt O15197); test: KINOMEscan; type: binding; details: read-out: Percent Control
T13 construct: purchased Eurofins DiscoverX KINOMEscan (scanMAX 468)

ERBB3 = biological target: T14, ERBB3 (Homo sapiens, UniProt P21860); test: KINOMEscan; type: binding; details: read-out: Percent Control
T14 construct: purchased Eurofins DiscoverX KINOMEscan (scanMAX 468)

FLT3(K663Q) = biological target: T15, FLT3(K663Q) (Homo sapiens, UniProt P36888, K663Q); test: KINOMEscan; type: binding; details: read-out: Percent Control
T15 construct: purchased Eurofins DiscoverX KINOMEscan (scanMAX 468)

HCK = biological target: T16, HCK (Homo sapiens, UniProt P08631); test: KINOMEscan; type: binding; details: read-out: Percent Control
T16 construct: purchased Eurofins DiscoverX KINOMEscan (scanMAX 468)

MAP4K2 = biological target: T17, MAP4K2 (Homo sapiens, UniProt Q12851); test: KINOMEscan; type: binding; details: read-out: Percent Control
T17 construct: purchased Eurofins DiscoverX KINOMEscan (scanMAX 468)

MARK1 = biological target: T18, MARK1 (Homo sapiens, UniProt Q9P0L2); test: KINOMEscan; type: binding; details: read-out: Percent Control
T18 construct: purchased Eurofins DiscoverX KINOMEscan (scanMAX 468)
T18 sequence (Q9P0L2 whole entry): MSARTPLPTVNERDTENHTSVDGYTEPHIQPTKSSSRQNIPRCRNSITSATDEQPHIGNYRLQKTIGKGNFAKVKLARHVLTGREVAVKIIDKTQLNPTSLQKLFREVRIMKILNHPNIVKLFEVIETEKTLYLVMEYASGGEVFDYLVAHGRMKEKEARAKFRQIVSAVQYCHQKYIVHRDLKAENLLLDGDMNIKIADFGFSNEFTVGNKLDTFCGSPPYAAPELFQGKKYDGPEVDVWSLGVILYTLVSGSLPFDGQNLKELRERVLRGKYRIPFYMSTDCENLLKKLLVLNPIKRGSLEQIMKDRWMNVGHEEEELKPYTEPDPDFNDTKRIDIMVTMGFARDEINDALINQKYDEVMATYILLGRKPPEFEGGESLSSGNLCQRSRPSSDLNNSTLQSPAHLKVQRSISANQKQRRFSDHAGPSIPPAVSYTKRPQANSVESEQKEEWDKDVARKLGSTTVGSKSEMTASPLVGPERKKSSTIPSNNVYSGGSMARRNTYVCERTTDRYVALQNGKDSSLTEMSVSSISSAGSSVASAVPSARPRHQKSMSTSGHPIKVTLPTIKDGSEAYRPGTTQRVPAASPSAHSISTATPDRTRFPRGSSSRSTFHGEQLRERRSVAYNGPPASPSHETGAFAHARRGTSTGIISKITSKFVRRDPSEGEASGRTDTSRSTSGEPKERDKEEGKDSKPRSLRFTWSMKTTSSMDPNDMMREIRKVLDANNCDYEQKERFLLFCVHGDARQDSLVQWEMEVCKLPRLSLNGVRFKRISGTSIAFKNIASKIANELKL

MELK = biological target: T19, MELK (Homo sapiens, UniProt Q14680); test: KINOMEscan; type: binding; details: read-out: Percent Control
T19 construct: purchased Eurofins DiscoverX KINOMEscan (scanMAX 468)

MINK = biological target: T20, MINK (Homo sapiens, UniProt Q8N4C8); test: KINOMEscan; type: binding; details: read-out: Percent Control
T20 construct: purchased Eurofins DiscoverX KINOMEscan (scanMAX 468)

MLK1 = biological target: T21, MLK1 (Homo sapiens, UniProt P80192); test: KINOMEscan; type: binding; details: read-out: Percent Control
T21 construct: purchased Eurofins DiscoverX KINOMEscan (scanMAX 468)

NEK1 = biological target: T22, NEK1 (Homo sapiens, UniProt Q96PY6); test: KINOMEscan; type: binding; details: read-out: Percent Control
T22 construct: purchased Eurofins DiscoverX KINOMEscan (scanMAX 468)

NEK2 = biological target: T23, NEK2 (Homo sapiens, UniProt P51955); test: KINOMEscan; type: binding; details: read-out: Percent Control
T23 construct: purchased Eurofins DiscoverX KINOMEscan (scanMAX 468)

PAK3 = biological target: T24, PAK3 (Homo sapiens, UniProt O75914); test: KINOMEscan; type: binding; details: read-out: Percent Control
T24 construct: purchased Eurofins DiscoverX KINOMEscan (scanMAX 468)

PFCDPK1(P.falciparum) = biological target: T25, PFCDPK1(P.falciparum) (Plasmodium falciparum, UniProt P62344); test: KINOMEscan; type: binding; details: read-out: Percent Control
T25 construct: purchased Eurofins DiscoverX KINOMEscan (scanMAX 468)
T25 sequence (P62344 whole entry): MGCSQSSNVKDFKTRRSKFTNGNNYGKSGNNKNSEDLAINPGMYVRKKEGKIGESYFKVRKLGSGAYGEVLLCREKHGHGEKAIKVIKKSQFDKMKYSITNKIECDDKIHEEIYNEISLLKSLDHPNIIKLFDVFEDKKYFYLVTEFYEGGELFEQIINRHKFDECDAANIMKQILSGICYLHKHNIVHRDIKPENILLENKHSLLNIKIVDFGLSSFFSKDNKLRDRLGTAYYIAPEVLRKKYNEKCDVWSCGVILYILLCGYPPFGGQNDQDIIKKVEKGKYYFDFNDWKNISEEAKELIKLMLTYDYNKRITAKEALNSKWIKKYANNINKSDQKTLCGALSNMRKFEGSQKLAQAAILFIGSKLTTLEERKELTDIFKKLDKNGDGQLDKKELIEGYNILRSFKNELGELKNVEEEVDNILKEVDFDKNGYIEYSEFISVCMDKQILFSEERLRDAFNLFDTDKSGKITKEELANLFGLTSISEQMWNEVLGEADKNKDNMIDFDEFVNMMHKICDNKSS

PFTK1 = biological target: T26, PFTK1 (Homo sapiens, UniProt O94921); test: KINOMEscan; type: binding; details: read-out: Percent Control
T26 construct: purchased Eurofins DiscoverX KINOMEscan (scanMAX 468)
T26 sequence (O94921 whole entry): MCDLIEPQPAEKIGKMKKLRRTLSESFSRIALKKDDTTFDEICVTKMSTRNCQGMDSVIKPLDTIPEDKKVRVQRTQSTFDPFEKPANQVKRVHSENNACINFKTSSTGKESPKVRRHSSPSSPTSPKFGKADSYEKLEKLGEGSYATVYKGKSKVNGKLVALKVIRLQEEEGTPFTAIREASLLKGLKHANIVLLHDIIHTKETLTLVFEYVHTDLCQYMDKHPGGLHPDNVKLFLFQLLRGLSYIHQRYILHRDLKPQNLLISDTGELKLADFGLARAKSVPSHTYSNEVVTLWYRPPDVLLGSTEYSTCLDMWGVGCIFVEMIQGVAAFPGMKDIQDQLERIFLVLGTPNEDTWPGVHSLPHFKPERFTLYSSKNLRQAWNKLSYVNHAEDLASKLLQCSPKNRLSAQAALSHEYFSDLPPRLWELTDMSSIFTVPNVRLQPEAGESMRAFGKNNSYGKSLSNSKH

PKN1 = biological target: T27, PKN1 (Homo sapiens, UniProt Q16512); test: KINOMEscan; type: binding; details: read-out: Percent Control
T27 construct: purchased Eurofins DiscoverX KINOMEscan (scanMAX 468)

PKNB(M.tuberculosis) = biological target: T28, PKNB(M.tuberculosis) (Mycobacterium tuberculosis, UniProt P9WI81); test: KINOMEscan; type: binding; details: read-out: Percent Control
T28 construct: purchased Eurofins DiscoverX KINOMEscan (scanMAX 468)

PRKX = biological target: T29, PRKX (Homo sapiens, UniProt P51817); test: KINOMEscan; type: binding; details: read-out: Percent Control
T29 construct: purchased Eurofins DiscoverX KINOMEscan (scanMAX 468)

RET = biological target: T30, RET (Homo sapiens, UniProt P07949); test: KINOMEscan; type: binding; details: read-out: Percent Control
T30 construct: purchased Eurofins DiscoverX KINOMEscan (scanMAX 468)
T30 sequence (P07949 29-1114): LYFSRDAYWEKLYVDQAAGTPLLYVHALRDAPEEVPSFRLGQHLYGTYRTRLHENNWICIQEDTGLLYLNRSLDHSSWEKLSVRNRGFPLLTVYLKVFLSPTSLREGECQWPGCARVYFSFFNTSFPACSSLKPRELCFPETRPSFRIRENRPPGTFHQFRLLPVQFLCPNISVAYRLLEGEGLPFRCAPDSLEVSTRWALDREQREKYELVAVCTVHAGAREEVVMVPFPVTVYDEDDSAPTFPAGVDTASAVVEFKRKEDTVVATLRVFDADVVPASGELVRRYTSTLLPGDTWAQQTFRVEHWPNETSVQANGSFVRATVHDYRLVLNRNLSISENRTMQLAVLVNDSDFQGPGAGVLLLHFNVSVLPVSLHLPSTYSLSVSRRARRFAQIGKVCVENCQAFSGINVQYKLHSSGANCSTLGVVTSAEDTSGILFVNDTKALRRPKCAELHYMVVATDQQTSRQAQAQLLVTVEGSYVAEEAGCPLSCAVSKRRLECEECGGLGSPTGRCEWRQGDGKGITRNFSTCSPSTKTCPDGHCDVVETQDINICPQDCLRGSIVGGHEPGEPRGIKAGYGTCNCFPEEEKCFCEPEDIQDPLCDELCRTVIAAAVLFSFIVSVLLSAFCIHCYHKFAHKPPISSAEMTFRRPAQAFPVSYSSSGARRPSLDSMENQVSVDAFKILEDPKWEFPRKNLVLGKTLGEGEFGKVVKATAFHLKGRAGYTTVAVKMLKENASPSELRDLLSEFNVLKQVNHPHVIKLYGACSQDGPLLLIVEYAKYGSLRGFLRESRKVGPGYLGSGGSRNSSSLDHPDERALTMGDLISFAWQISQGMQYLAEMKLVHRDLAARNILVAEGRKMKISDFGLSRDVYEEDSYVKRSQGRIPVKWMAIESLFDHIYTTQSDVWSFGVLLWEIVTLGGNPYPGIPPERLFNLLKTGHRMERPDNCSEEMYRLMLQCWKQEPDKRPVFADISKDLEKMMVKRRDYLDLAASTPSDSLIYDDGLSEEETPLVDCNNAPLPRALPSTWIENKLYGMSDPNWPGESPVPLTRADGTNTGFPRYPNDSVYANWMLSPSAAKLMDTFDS

RIPK4 = biological target: T31, RIPK4 (Homo sapiens, UniProt P57078); test: KINOMEscan; type: binding; details: read-out: Percent Control
T31 construct: purchased Eurofins DiscoverX KINOMEscan (scanMAX 468)

RIPK5 = biological target: T32, RIPK5 (Homo sapiens, UniProt Q6XUX3); test: KINOMEscan; type: binding; details: read-out: Percent Control
T32 construct: purchased Eurofins DiscoverX KINOMEscan (scanMAX 468)

[2] = biological target: T33, RPS6KA4(Kin.Dom.2-C-terminal) (Homo sapiens, UniProt O75676); test: KINOMEscan; type: binding; details: read-out: Percent Control
T33 construct: RPS6KA4(Kin.Dom.2-C-terminal); purchased Eurofins DiscoverX KINOMEscan (scanMAX 468)
T33 sequence (O75676 372-772 limits assumed): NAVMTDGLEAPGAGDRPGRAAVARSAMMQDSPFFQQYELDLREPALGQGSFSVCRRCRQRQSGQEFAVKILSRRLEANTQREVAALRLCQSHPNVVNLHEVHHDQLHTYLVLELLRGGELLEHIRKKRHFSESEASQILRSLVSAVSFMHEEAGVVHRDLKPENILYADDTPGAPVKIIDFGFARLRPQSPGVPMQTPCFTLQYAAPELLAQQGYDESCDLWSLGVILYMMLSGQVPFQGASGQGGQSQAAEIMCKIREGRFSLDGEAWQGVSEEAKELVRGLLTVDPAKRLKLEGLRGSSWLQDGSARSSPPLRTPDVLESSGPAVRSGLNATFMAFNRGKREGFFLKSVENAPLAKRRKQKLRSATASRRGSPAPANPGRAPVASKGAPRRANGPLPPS

TAOK3 = biological target: T34, TAOK3 (Homo sapiens, UniProt Q9H2K8); test: KINOMEscan; type: binding; details: read-out: Percent Control
T34 construct: purchased Eurofins DiscoverX KINOMEscan (scanMAX 468)

TEC = biological target: T35, TEC (Homo sapiens, UniProt P42680); test: KINOMEscan; type: binding; details: read-out: Percent Control
T35 construct: purchased Eurofins DiscoverX KINOMEscan (scanMAX 468)

[3] = biological target: T36, TYK2(JH1domain-catalytic) (Homo sapiens, UniProt P29597); test: KINOMEscan; type: binding; details: read-out: Percent Control
T36 construct: TYK2(JH1domain-catalytic); purchased Eurofins DiscoverX KINOMEscan (scanMAX 468)

WNK3 = biological target: T37, WNK3 (Homo sapiens, UniProt Q9BYP7); test: KINOMEscan; type: binding; details: read-out: Percent Control
T37 construct: purchased Eurofins DiscoverX KINOMEscan (scanMAX 468)

YSK1 = biological target: T38, YSK1 (Homo sapiens, UniProt O00506); test: KINOMEscan; type: binding; details: read-out: Percent Control
T38 construct: purchased Eurofins (KINOMEscan, DiscoverX)

Hs_PIM1 = biological target: T39, Hs_PIM1 (Homo sapiens, UniProt P11309); design: method as in ref 13 (a number printed in a supplementary file, which may have a reference list of its own: not looked up in the article's list); details: DB18, cited from earlier work
T39 construct: host or cells: Sf9 insect cells (baculovirus)
T39 sequence (P11309 whole entry): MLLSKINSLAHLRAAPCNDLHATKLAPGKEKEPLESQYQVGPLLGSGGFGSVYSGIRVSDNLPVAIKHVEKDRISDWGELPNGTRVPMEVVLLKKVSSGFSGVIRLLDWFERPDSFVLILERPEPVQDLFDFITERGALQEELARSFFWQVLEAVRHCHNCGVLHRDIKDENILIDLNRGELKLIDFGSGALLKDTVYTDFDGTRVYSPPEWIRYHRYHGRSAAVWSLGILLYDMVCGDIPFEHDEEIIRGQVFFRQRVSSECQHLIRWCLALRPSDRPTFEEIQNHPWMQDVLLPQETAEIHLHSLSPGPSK

HuH7 = test system: HuH7; design: method as in ref 14 (a number printed in a supplementary file, which may have a reference list of its own: not looked up in the article's list); details: DB18[a], footnote not given; read-out: Cytotoxic studies IC50 HuH7; cited from earlier work

## Cc1ccc(-n2cc(COc3cccc4cnc(Nc5cccc(Cl)c5)nc34)nn2)c([N+](=O)[O-])c1 [DB18]
[1]
  remaining binding at 1 µM: 98%
ADCK4
  remaining binding at 1 µM: 100%
AURKB
  remaining binding at 1 µM: 99%
BMPR1B
  remaining binding at 1 µM: 96%
CAMK2D
  remaining binding at 1 µM: 100%
CDC2L5
  remaining binding at 1 µM: 100%
CDKL1
  remaining binding at 1 µM: 88%
CHEK1
  remaining binding at 1 µM: 100%
DCAMKL1
  remaining binding at 1 µM: 88%
DDR2
  remaining binding at 1 µM: 100%
EGFR(T790M)
  remaining binding at 1 µM: 100%
EPHA8
  remaining binding at 1 µM: 100%
EPHB6
  remaining binding at 1 µM: 95%
ERBB3
  remaining binding at 1 µM: 99%
FLT3(K663Q)
  remaining binding at 1 µM: 69%
HCK
  remaining binding at 1 µM: 100%
MAP4K2
  remaining binding at 1 µM: 100%
MARK1
  remaining binding at 1 µM: 99%
MELK
  remaining binding at 1 µM: 100%
MINK
  remaining binding at 1 µM: 95%
MLK1
  remaining binding at 1 µM: 100%
NEK1
  remaining binding at 1 µM: 100%
NEK2
  remaining binding at 1 µM: 100%
PAK3
  remaining binding at 1 µM: 100%
PFCDPK1(P.falciparum)
  remaining binding at 1 µM: 100%
PFTK1
  remaining binding at 1 µM: 100%
PKN1
  remaining binding at 1 µM: 100%
PKNB(M.tuberculosis)
  remaining binding at 1 µM: 97%
PRKX
  remaining binding at 1 µM: 97%
RET
  remaining binding at 1 µM: 92%
RIPK4
  remaining binding at 1 µM: 82%
RIPK5
  remaining binding at 1 µM: 100%
[2]
  remaining binding at 1 µM: 100%
TAOK3
  remaining binding at 1 µM: 100%
TEC
  remaining binding at 1 µM: 100%
[3]
  remaining binding at 1 µM: 99%
WNK3
  remaining binding at 1 µM: 100%
YSK1
  remaining binding at 1 µM: 98%
Hs_PIM1; 1 µM
  % of residual activity Hs_PIM1: 97%
Hs_PIM1; 10 µM
  % of residual activity Hs_PIM1: 81%
HuH7
  pIC50: 4.60
